Assays:
A431 = assay: Cell anti-proliferation experiment (CTG); assay type: cell-based; details: Homo sapiens, A-431, 72 h, A431 (wild-type EGFR)
From the text: (§1) H1975 has an EGFR: T790M/L858R double mutation, PC-9 has an EGFR exon 19 deletion, and HCC827 has an exon 19 deletion mutation. Baf3-19del- T790M -C797S (Baf3-DTC) is a stable Ba/F3 clone expressing exogenous EGFR gene bearing T790M, C797S, and […] triple amino acid mutations, purchased from KYinno. Baf3-L858R-T790M - C797S (Baf3-LTC) is a stable Ba/F3 clone expressing exogenous EGFR gene bearing […], T790M, and C797S triple mutations, purchased from KYinno. A549 is a wild-type EGFR, purchased from Nanjing Kebai Biotechnology. A431 is a wild-type EGFR, purchased from Shanghai Xinyu Biotechnology. CellCounting-Lite2.0, Trypsin EDTA, 37°C CO2 incubator, cell counter, EnVision Serial No. 1050454.
(§2) • A) Digested logarithmic phase cells with Trypsin EDTA, added culture medium to stop the reaction, and mixing well with a pipette to prepare a cell suspension. • B) Used Vi-cell to determine cell concentration, and prepared a suspension of 15,000-25,000 cells per milliliter according to the experimental purpose and cell characteristics. • C) After prepared the cell suspension, mixed it gently and added 100 µL to each well, so that the cell density to be tested is 1500-2500 per well.
(§3) • A) Weighed approximately 2 mg the compound and calculated the required volume of DMSO according to the formula: Compound mass (mg) * Compound purity (%) / Compound molecular weight * 1000. • B) Placed the inoculated cell culture plate into an incubator and incubated for about 24 hours. Then added compounds of varying concentrations. • C) Diluted the 10mM compound stock solution to […] with culture medium, and added the […] compound solution to the second column of the deep well plate in sequence, and added […] culture medium containing 0.5% DMSO to the third to eleventh columns. • D) Gradient dilution: Taked 125 µL solution from the second column and added it to the third column, mix well; then taked 125 µL solution from the third column and added it to the fourth column, repeated this operation until the tenth column. • E) Used a multichannel pipette, aspirated 25 µL the compound from the deep-well plate and added it to a 96-well culture plate. Repeated this process three times for each compound on the 96-well plate. This will ultimately create a concentration gradient of up to 10,000 nM at a 1:4 ratio on the 96-well plate.
(§4) • A) The effects of the compound were observed under an inverted microscope after the 96-well plate was incubated in an incubator for 72 hours. • B) Added 25 µL CTG solution to each well, placed on a shaker for 10 minutes, and read the […] of each well.
(§5) Calculate the % Cell Viability using the following formula: %Cell Viability = 100% × (Lum_Sample−Lum_LC)/(Lum_HC−Lum_LC) [formula] • Lum_HC: Cell readings from the 0.1% DMSO control group • Lum_Sample: Cell readings with added compound • Lum_LC: Blank culture medium reading
(§6) The IC50 value was obtained by curve fitting using GraphPad Prism 8 software.

A549 = assay: Cell anti-proliferation experiment (CTG); assay type: cell-based; details: Homo sapiens, A549, 72 h, A549 (wild-type EGFR)
From the text: as §1, §2, §3, §4, §5, §6

[1] = tested on: Baf3-19del- T790M -C797S (Baf3-DTC); assay: Cell anti-proliferation experiment (CTG); assay type: cell-based; details: 72 h
From the text: as §1, §2, §3, §4, §5, §6

[2] = tested on: Baf3-L858R-T790M - C797S (Baf3-LTC); assay: Cell anti-proliferation experiment (CTG); assay type: cell-based; details: 72 h
From the text: as §1, §2, §3, §4, §5, §6

H1975 = assay: Cell anti-proliferation experiment (CTG); assay type: cell-based; details: Homo sapiens, NCI-H1975, 72 h, H1975 (EGFR T790M/L858R)
From the text: as §1, §2, §3, §4, §5, §6

HCC827 = assay: Cell anti-proliferation experiment (CTG); assay type: cell-based; details: Homo sapiens, HCC827, 72 h, HCC827 (exon 19 deletion)
From the text: as §1, §2, §3, §4, §5, §6

PC-9 = assay: Cell anti-proliferation experiment (CTG); assay type: cell-based; details: Homo sapiens, PC-9, 72 h, PC-9 (EGFR exon 19 deletion)
From the text: as §1, §2, §3, §4, §5, §6

[3] = Pharmacokinetic tests in male SD rats; assay type: in vivo; details: oral gavage (po), 10 mg/kg, plasma
Method: Three healthy adult male SD rats, 6-8 weeks old, weighing 200-300 grams.
EDTA-Na2 anticoagulant, weighed 11.2 g EDTA-Na2 and placed it in a reagent bottle. Added 100 mL physiological saline and shaked to dissolve completely. After preparation, dispensed into 1.5 mL centrifuge tubes, each containing approximately 20 µL, for whole blood sample collection.
Accurately weighed approximately 10 mg the sample to be tested, added 10% of the converted total volume of DMSO to dissolve it, and then slowly added 90% of the total volume of 0.5% MC solvent while stirring. Sonicated and vortex to mix thoroughly to obtain a solution of the preparation that is considered to be homogeneous, with a concentration of 1 mg/mL. Prepared fresh immediately before use.
Piped 0.2 mL the sample into a 1.5 mL centrifuge tube and store at -80°C for analysis of the concentration of the drug solution.
Animals were housed in rat cages and fasted for at least 10 hours starting the day before the experiment, but water was allowed. On the day of the experiment, each animal was weighed and marked on its tail. Blank blood samples were collected before drug administration. Blood was collected via tail vein.
• Route of administration: Oral gavage (po); • Dosage concentration: 1 mg/ml; • Dosage: 10 mg/kg; • Dosage volume: 10 mL/kg; • Procedure: Hold the rat upright with your left hand wearing a bite-proof glove, insert the gavage needle into the throat through the mouth, and insert the needle when feeling no obvious resistance. Then inject the drug into the stomach.
Whole blood (0.1-0.2 ml) was collected from test animals at 0.5 h, 1 h, 2 h, 4 h, 6 h, 8 h, 12 h, and 24 h after drug administration. The samples were placed in EDTA-Na 2 anticoagulant tubes, inverted 3-4 times to mix, and centrifuged at 4°C, 2000 g for 5 min to separate the supernatant plasma. The plasma was promptly transferred to -80°C for storage until analysis. Blood was collected via tail vein.
A quantitative detection method for the analyte was established using Shimadzu liquid chromatography and Triple Quad™ 6500+AB mass spectrometry. The concentration of the parent drug in plasma was analyzed. The analytical results were controlled for variation using quality control samples, with the accuracy of the quality control samples expected to be between 80% and 120%.
The main pharmacokinetic parameters were calculated using a non-compartmental model in Winnonlin Phoenix software. These parameters included the area under the curve (AUC(0-t) and AUC(0-∞)), elimination half-life (T1/2), maximum plasma concentration (Cmax ), and time to reach maximum plasma concentration (Tmax).The results are shown in Table 3.

Compound	IC50 (A431; class symbol) [nM]	IC50 (A549; class symbol) [nM]	IC50 ([1]; class symbol) [nM]	IC50 ([2]; class symbol) [nM]	IC50 (H1975; class symbol) [nM]	IC50 (HCC827; class symbol) [nM]	IC50 (PC-9; class symbol) [nM]	HL [3] [h]	AUC(0-inf) ([3]; rat) [ng·h/mL]	AUC(0-t) ([3]; rat) [ng·h/mL]	Cmax ([3]; rat) [ng/mL]	MRT last ([3]; rat) [h]	Tmax ([3]; rat) [h]	IC50 (A549; number after the class symbol) [nM]	IC50 (H1975; number after the class symbol) [nM]	IC50 (HCC827; number after the class symbol) [nM]	IC50 (PC-9; number after the class symbol) [nM]	IC50 (A431; number after the class symbol) [nM]	IC50 ([1]; number after the class symbol) [nM]	IC50 ([2]; number after the class symbol) [nM]
CCc1cc(Nc2ncc(Cl)c(Nc3ccccc3P(C)(C)=O)n2)c(OC)cc1N1CC2(CCN(C(=O)CN3CCC(c4cc5c(cc4F)c(N4CCC(=O)NC4=O)nn5C)C(F)(F)C3)C2)C1 (stereo not drawn) [TC-105]	100 to 1000	100 to 1000	10 to 100	10 to 100	100 to 1000	10 to 100	100 to 1000	–	–	–	–	–	–	–	–	–	–	–	–	–
CCc1cc(Nc2ncc(Br)c(Nc3ccc(OC4CC4)cc3P(C)(C)=O)n2)c(OC)cc1N1CC2(CCN(C(=O)CN3CCC(c4cc5c(cc4F)c(N4CCC(=O)NC4=O)nn5C)C(F)(F)C3)CC2)C1 (stereo not drawn) [TC-232]	> 1000	> 1000	< 10	< 10	10 to 100	10 to 100	100 to 1000	–	–	–	–	–	–	–	–	–	–	–	–	–
CCc1cc(Nc2ncc(Cl)c(Nc3ccccc3P(C)(C)=O)n2)c(OC)cc1N1CCN(CCN2CCC(c3cc4c(cc3F)c(N3CCC(=O)NC3=O)nn4C)C(F)(F)C2)CC1 (stereo not drawn) [TC-099]	–	–	–	–	–	–	–	7.86	9130	7840	649	7.79	2.67	–	–	–	–	–	–	–
CCc1cc(Nc2ncc(Br)c(Nc3ccccc3P3(=O)CCCC3)n2)c(OC)cc1N1CC2(CCN(C(=O)CN3CCC(c4cc5c(cc4F)c(N4CCC(=O)NC4=O)nn5C)CC3)CC2)C1 [TB-008]	100 to 1000	100 to 1000	10 to 100	10 to 100	10 to 100	10 to 100	100 to 1000	–	–	–	–	–	–	–	–	–	–	–	–	–
CCc1cc(Nc2ncc(Br)c(Nc3ccccc3P(C)(C)=O)n2)c(OC)cc1N1CCN(C(=O)CN2CCC(c3cc4c(cc3F)c(N3CCC(=O)NC3=O)nn4-c3ccccc3)C(F)(F)C2)CC1 (stereo not drawn) [TC-150]	> 1000	> 1000	10 to 100	10 to 100	100 to 1000	100 to 1000	> 1000	–	–	–	–	–	–	–	–	–	–	–	–	–
CCc1cc(Nc2ncc(Cl)c(Nc3ccccc3P(C)(C)=O)n2)c(OC)nc1N1CCN(C(=O)CN2CCC(c3cc4c(cc3F)c(N3CCC(=O)NC3=O)nn4C)C(F)(F)C2)CC1 (stereo not drawn) [TC-115]	> 1000	100 to 1000	10 to 100	10 to 100	100 to 1000	100 to 1000	100 to 1000	–	–	–	–	–	–	–	–	–	–	–	–	–
CCc1cc(Nc2ncc(Cl)c(Nc3ccccc3C(=O)NC)n2)c(OC)cc1N1CC2(CN(C(=O)CN3CCC(c4cc5c(cc4F)c(N4CCC(=O)NC4=O)nn5C)C(F)(F)C3)C2)C1 (stereo not drawn) [TA-019]	> 1000	> 1000	10 to 100	10 to 100	< 10	> 1000	100 to 1000	–	–	–	–	–	–	–	–	–	–	–	–	–
COc1cc(N2CCN(C(=O)CN3CCC(c4ccc5c(N6CCC(=O)NC6=O)nn(C)c5c4)CC3)CC2)ccc1Nc1ncc(Cl)c(Nc2ccccc2)n1 [DZL-2, reference compound]	–	100 to 1000	–	–	100 to 1000	100 to 1000	100 to 1000	–	–	–	–	–	–	289	220	265	612	–	–	–
CCc1cc(Nc2ncc(Cl)c(Nc3ccccc3P(C)(C)=O)n2)c(OC)cc1N1CCC2(CC1)CN(C(=O)CN1CCC(c3cc4c(cc3F)c(N3CCC(=O)NC3=O)nn4C)C(F)(F)C1)C2 (stereo not drawn) [TC-225]	> 1000	100 to 1000	10 to 100	10 to 100	100 to 1000	100 to 1000	100 to 1000	–	–	–	–	–	–	961	289	576	432	1610	13.5	16.7
CCc1cc(Nc2ncc(Cl)c(Nc3ccccc3P(C)(C)=O)n2)c(OC)cc1N1CCC2(CCN(C(=O)CN3CCC(c4cc5c(cc4F)c(N4CCC(=O)NC4=O)nn5C)C(F)(F)C3)CC2)C1 (stereo not drawn) [TC-111]	> 1000	100 to 1000	10 to 100	10 to 100	100 to 1000	100 to 1000	100 to 1000	–	–	–	–	–	–	–	–	–	–	–	–	–
CCc1cc(Nc2ncc(Cl)c(Nc3ccccc3P(C)(C)=O)n2)c2c(c1N1CCN(C(=O)CN3CCC(c4cc5c(cc4F)c(N4CCC(=O)NC4=O)nn5C)C(F)(F)C3)CC1)CCO2 (stereo not drawn) [TC-135]	> 1000	> 1000	< 10	< 10	10 to 100	100 to 1000	> 1000	–	–	–	–	–	–	–	–	–	–	–	–	–
CCc1cc(Nc2ncc(Br)c(Nc3ccccc3P(C)(C)=O)n2)c(OC)cc1N1CCC2(CC1)CN(C(=O)CN1CCC(c3cc4c(cc3F)c(N3CCC(=O)NC3=O)nn4C)C(F)(F)C1)C2 (stereo not drawn) [TC-226]	> 1000	100 to 1000	< 10	< 10	100 to 1000	100 to 1000	100 to 1000	–	–	–	–	–	–	–	–	–	–	–	–	–
COc1nc(N2CCN(C(=O)CN3CCC(c4cc5c(cc4F)c(N4CCC(=O)NC4=O)nn5C)C(F)(F)C3)CC2)ccc1Nc1ncc(Cl)c(Nc2ccccc2P(C)(C)=O)n1 (stereo not drawn) [TC-125]	100 to 1000	100 to 1000	100 to 1000	10 to 100	100 to 1000	100 to 1000	100 to 1000	–	–	–	–	–	–	–	–	–	–	–	–	–
COc1cc(N2CCN(C(=O)CN3CCC(c4cc5c(cc4F)c(N4CCC(=O)NC4=O)nn5C)C(F)(F)C3)CC2)c(-c2cnn(C)c2)cc1Nc1ncc(Br)c(Nc2ccccc2P(C)(C)=O)n1 (stereo not drawn) [TC-224]	100 to 1000	100 to 1000	< 10	< 10	10 to 100	10 to 100	100 to 1000	–	–	–	–	–	–	–	–	–	–	–	–	–

— EP4813979A1, “COMPOUND FOR EGFR PROTEIN DEGRADATION AND USE THEREOF” (TYK Medicines, Inc., priority 2023, dated 2025)
